Laboratory results from article PMC9598367, “Discovery and Preliminary Structure-Activity Investigation of 3-Substituted-1H-imidazol-5-yl-1H-indoles with In Vitro Activity towards Methicillin-Resistant Staphylococcus aureus” (Antibiotics, 2022).
≈ marks a conversion by molar mass, not a printed value. Marks after values point to notes of the source that are not given here.

What was measured:
[1] = HEK293 cytotoxicity assay (resazurin); format: cell-based, human; conditions: human; for CC50 at 20 h: concentration at 50% cytotoxicity on HEK293 cells, mean (n = 2)
Description: For the HEK293 cytotoxicity assay, cells were counted manually in a Neubauer hemocytometer and plated at a density of 5000 cells/well into each well of the 384-well plates containing the 25× (2 μL) concentrated compounds. The medium used was Dulbecco’s modified eagle medium (DMEM) supplemented with 10% fetal bovine serum (FBS). Cells were incubated together with the compounds for 20 h at 37 °C, 5% CO2. To measure cytotoxicity, 5 μL (equals 100 μM final) of resazurin was added to each well after incubation, and incubated for further 3 h at 37 °C with 5% CO2. After final incubation fluorescence intensity was measured as Fex 560/10 nm, em 590/10 nm (F560/590) using a Tecan M1000 Pro monochromator plate reader. CC50 values (concentration at 50% cytotoxicity) were calculated by normalizing the fluorescence readout, with 74 μg/mL tamoxifen as negative control (0%) and normal cell growth as positive control (100%). The concentration-dependent percentage cytotoxicity was fitted to a dose response function (using Pipeline Pilot) and CC50 values determined.

[2] = test system: Staphylococcus aureus ATCC25923; experiment: MIC by broth dilution, S. aureus ATCC25923; format: cell-based; conditions: Staphylococcus aureus ATCC25923; mean (n = 3)
Description: The susceptibility of S. aureus (ATCC25923) to antibiotics and compounds was determined in microplates using the standard broth dilution method in accordance with the recommendations of the Comité de l’AntibioGramme de la Société Française de Microbiologie (CA-SFM) as previously described. Briefly, the minimal inhibitory concentrations (MICs) were determined with an inoculum of 10^5 CFU in 200 µL of Mueller-Hinton broth (MHB) containing two-fold serial dilutions of each drug. […] To determine all MICs, the measurements were independently repeated in triplicate.

[3] = test system: human red blood cells; experiment: Hemolytic assay; format: cell-based; conditions: concentration at 10% hemolytic activity on human red blood cells; mean (n = 2)
Description: Human whole blood was washed three times with 3 volumes of 0.9% NaCl and then resuspended in same to a concentration of 0.5 × 10^8 cells/mL, as determined by manual cell count in a Neubauer hemocytometer. The washed cells were then added to the 384-well compound-containing plates for a final volume of 50 μL. After a 10 min shake on a plate shaker the plates were then incubated for 1 h at 37 °C. After incubation, the plates were centrifuged at 1000 g for 10 min to pellet cells and debris, 25 μL of the supernatant was then transferred to a polystyrene 384-well assay plate. Hemolysis was determined by measuring the supernatant absorbance at […] (OD405). The absorbance was measured using a Tecan M1000 Pro monochromator plate reader. HC10 and HC50 (concentration at 10% and 50% hemolysis, respectively) were calculated by curve fitting the inhibition values vs. log(concentration) using a sigmoidal dose–response function with variable fitting values for top, bottom and slope.

[4] = test system: Staphylococcus aureus ATCC43300 (MRSA); experiment: MIC, MRSA ATCC43300 (CO-ADD protocol); format: cell-based; conditions: Staphylococcus aureus, Staphylococcus aureus ATCC43300 (MRSA); mean (n = 2); read-out: MIC (µg/mL) MRSA
Source text: Additional antimicrobial evaluation against Staphylococcus aureus MRSA (ATCC43300), Pseudomonas aeruginosa (ATCC27853), Escherichia coli (ATCC25922), Klebsiella pneumoniae (ATCC700603), Acinetobacter baumannii (ATCC19606), Candida albicans (ATCC90028), and Cryptococcus neoformans (ATCC208821) was undertaken at the Community for Open Antimicrobial Drug Discovery at The University of Queensland (Australia) according to their standard protocols. For antimicrobial assays, the tested strains were cultured in either Luria broth (LB) (In Vitro Technologies, USB75852, Noble Park North, Australia), nutrient broth (NB) (Becton Dickson, 234000, Macquarie Park, Australia), or cation-adjusted MHB at 37 °C overnight. A sample of culture was then diluted 40-fold in fresh MHB and incubated at 37 °C for 1.5−2 h. The compounds were serially diluted 2-fold across the wells of 96-well plates (Corning 3641, Tewksbury, MA, USA, nonbinding surface), with compound concentrations ranging from 0.015 to 64 μg/mL, plated in duplicate. The resultant mid log phase cultures were diluted to the final concentration of 1 × 10^6 CFU/mL; then, 50 μL was added to each well of the compound containing plates giving a final compound concentration range of 0.008 to 32 μg/mL and a cell density of 5 × 10^5 CFU/mL. All plates were then covered and incubated at 37 °C for 18 h. Resazurin was added at 0.001% final concentration to each well and incubated for 2 h before MICs were read by eye.
(§1) Colistin and vancomycin were used as positive bacterial inhibitor standards for Gram-negative and Gram-positive bacteria, respectively. Fluconazole was used as a positive fungal inhibitor standard for C. albicans and C. neoformans. The antibiotics were provided in 4 concentrations, with 2 above and 2 below its MIC value, and plated into the first 8 wells of column 23 of the 384-well NBS plates. The quality control (QC) of the assays was determined by the antimicrobial controls and the Z′-factor (using positive and negative controls).

[5] = test system: Cryptococcus neoformans ATCC208821; experiment: Antifungal MIC, C. neoformans; format: cell-based; conditions: Cryptococcus neoformans ATCC208821; mean (n = 2)
Description: For the antifungal assay, fungi strains were cultured for 3 days on yeast extract-peptone dextrose (YPD) agar at 30 °C. A yeast suspension of 1 × 10^6 to 5 × 10^6 CFU/mL was prepared from five colonies. These stock suspensions were diluted with yeast nitrogen base (YNB) (Becton Dickinson, 233520) broth to a final concentration of 2.5 × 10^3 CFU/mL. The compounds were serially diluted 2-fold across the wells of 96-well plates (Corning 3641, nonbinding surface), with compound concentrations ranging from 0.015 to 64 μg/mL and final volumes of 50 μL, plated in duplicate. Then, 50 μL of the fungi suspension that was previously prepared in YNB broth to the final concentration of 2.5 × 10^3 CFU/mL was added to each well of the compound-containing plates, giving a final compound concentration range of 0.008 to 32 μg/mL. Plates were covered and incubated at 35 °C for 36 h without shaking. C. albicans MICs were determined by measuring the absorbance at OD530. For C. neoformans, resazurin was added at 0.006% final concentration to each well and incubated for a further 3 h before MICs were determined by measuring the absorbance at OD570–600.
as §1

| SMILES | CC50 at 20 h [1] [µg/mL] | MIC [2] [µg/mL] | HC10 [3] [µg/mL] | melting point [°C] | MIC [4] [µg/mL] | MIC [5] [µg/mL] | HC10 (µg/mL) [3] | IC50 at 20 h ([1]; HEK293 cells, positive control) [µg/mL] |
| --- | --- | --- | --- | --- | --- | --- | --- | --- |
| c1ccc(CCn2cncc2-c2c[nH]c3ccccc23)cc1 [Compound 1, 3-(1-Phenethyl-1H-imidazol-5-yl)-1H-indole] | 19.3 (≈ 67.2 µM) | > 200 | >32 | 69 to 70 | 16 (≈ 55.7 µM) | > 32 | – | – |
| COc1ccc(CCn2cncc2-c2c[nH]c3cc(Cl)ccc23)cc1 [Compound 2, 6-Chloro-3-(1-(4-methoxyphenethyl)-1H-imidazol-5-yl)-1H-indole] | 22.5 (≈ 64 µM) | > 200 | >32 | 165 to 166 | 16 (≈ 45.5 µM) | 32 (≈ 91 µM) | – | – |
| Brc1ccc2[nH]cc(-c3cncn3Cc3ccc(I)cc3)c2c1 [Compound 9, 5-Bromo-3-(1-(4-iodobenzyl)-1H-imidazol-5-yl)-1H-indole] | 5.1 (≈ 10.7 µM) | > 200 | >32 | > 200 | 16 (≈ 33.5 µM) | 16 (≈ 33.5 µM) | – | – |
| COc1ccc(Cn2cncc2-c2c[nH]c3ccccc23)cc1 [Compound 11, 3-(1-(4-Methoxybenzyl)-1H-imidazol-5-yl)-1H-indole] | 25.6 (≈ 84.4 µM) | > 200 | >32 | 159 to 160 | 32 (≈ 105 µM) | > 32 | – | – |
| COc1ccc(Cn2cncc2-c2c[nH]c3cc(Br)ccc23)cc1 [Compound 17, 6-Bromo-3-(1-(4-methoxybenzyl)-1H-imidazol-5-yl)-1H-indole] | 11.1 (≈ 29 µM) | 25 (≈ 65.4 µM) | >32 | 188 to 189 | 32 (≈ 83.7 µM) | 32 (≈ 83.7 µM) | – | – |
| Fc1ccc2c(-c3cncn3CCc3ccccc3)c[nH]c2c1 [Compound 18, 6-Fluoro-3-(1-phenethyl-1H-imidazol-5-yl)-1H-indole] | 16.3 (≈ 53.4 µM) | 25 (≈ 81.9 µM) | – | – | 32 (≈ 105 µM) | > 32 | >32^c µg/mL | – |
| Clc1ccc2[nH]cc(-c3cncn3CCc3ccccc3)c2c1 [Compound 19, 5-Chloro-3-(1-phenethyl-1H-imidazol-5-yl)-1H-indole] | 17.3 (≈ 53.8 µM) | 12.5 (≈ 38.8 µM) | >32 | > 200 | 16 (≈ 49.7 µM) | > 32 | – | – |
| Brc1ccc2[nH]cc(-c3cncn3CCc3ccccc3)c2c1 [Compound 21, 5-Bromo-3-(1-phenethyl-1H-imidazol-5-yl)-1H-indole] | 10.6 (≈ 28.9 µM) | 6.25 (≈ 17.1 µM) | >32 | 110 to 111 | 16 (≈ 43.7 µM) | 32 (≈ 87.4 µM) | – | – |
| Brc1ccc2c(-c3cncn3CCc3ccccc3)c[nH]c2c1 [Compound 22, 6-Bromo-3-(1-phenethyl-1H-imidazol-5-yl)-1H-indole] | 12.7 (≈ 34.7 µM) | 12.5 (≈ 34.1 µM) | >32 | – | 16 (≈ 43.7 µM) | 32 (≈ 87.4 µM) | – | – |
| COc1ccc(CCn2cncc2-c2c[nH]c3ccccc23)cc1 [Compound 23, 3-(1-(4-Methoxyphenethyl)-1H-imidazol-5-yl)-1H-indole] | 24.5 (≈ 77.2 µM) | 100 (≈ 315 µM) | >32 | 158 to 159 | 32 (≈ 101 µM) | > 32 | – | – |
| COc1ccc(CCn2cncc2-c2c[nH]c3cc(F)ccc23)cc1 [Compound 25, 6-Fluoro-3-(1-(4-methoxyphenethyl)-1H-imidazol-5-yl)-1H-indole] | 27 (≈ 80.5 µM) | 100 (≈ 298 µM) | >32 | – | 16 (≈ 47.7 µM) | > 32 | – | – |
| COc1ccc(CCn2cncc2-c2c[nH]c3ccc(Br)cc23)cc1 [Compound 27, 5-Bromo-3-(1-(4-methoxyphenethyl)-1H-imidazol-5-yl)-1H-indole] | 16 (≈ 40.4 µM) | 12.5 (≈ 31.5 µM) | >32 | 157 to 158 | 8 (≈ 20.2 µM) | > 32 | – | – |
| COc1ccc(CCn2cncc2-c2c[nH]c3cc(Br)ccc23)cc1 [Compound 28, 6-Bromo-3-(1-(4-methoxyphenethyl)-1H-imidazol-5-yl)-1H-indole] | 15.6 (≈ 39.4 µM) | 12.5 (≈ 31.5 µM) | >32 | 184 to 185 | 32 (≈ 80.7 µM) | 32 (≈ 80.7 µM) | – | – |
| COc1ccc(OC)c(CCn2cncc2-c2c[nH]c3ccccc23)c1 [Compound 29, 3-(1-(2,5-Dimethoxyphenethyl)-1H-imidazol-5-yl)-1H-indole] | 11.5 (≈ 33.1 µM) | > 200 | >32 | – | 32 (≈ 92.1 µM) | > 32 | – | – |
| COc1ccc(OC)c(CCn2cncc2-c2c[nH]c3ccc(Br)cc23)c1 [Compound 34, 5-Bromo-3(1-(2,5-dimethoxyphenethyl)-1H-imidazol-5-yl)-1H-indole] | 6.2 (≈ 14.5 µM) | 25 (≈ 58.6 µM) | >32 | 141 to 142 | 16 (≈ 37.5 µM) | > 32 | – | – |
| Brc1ccc2c(-c3cncn3CCc3ccc4c(c3)OCO4)c[nH]c2c1 [Compound 42, 3-(1-(2-(Benzo[d][1,3]dioxol-5-yl)ethyl)-1H-imidazol-5-yl)-6-bromo-1H-indole] | 16.1 (≈ 39.2 µM) | 12.5 (≈ 30.5 µM) | >32 | 194 to 195 | 16 (≈ 39 µM) | 32 (≈ 78 µM) | – | – |
| CC/C(=C(\c1ccccc1)c1ccc(OCCN(C)C)cc1)c1ccccc1 [Tamoxifen, reference compound] | – | – | – | – | – | – | – | 9 (≈ 24.2 µM) |
